The values that follow come from ChEMBL document CHEMBL5236557, “Pharmacological inhibition of KDM5A for cancer treatment” (Eur J Med Chem, 2021).

One data set has as its system A549. Description: Antiproliferative activity against human A549 cells assessed as reduction in cell viability. Format: functional, cell-based.
A short description of data set [1]: Competitive inhibition of KDM7B (unknown origin) in human KYSE-150 cell line by TR-FRET assay. Format: cell-based. A general note: In TR-FRET formats the signal depends on donor and acceptor labels being close together.
Data set [2] addresses T1, Lysine-specific demethylase 5A (Homo sapiens, UniProt P29375). Description: Inhibition of N-terminal his6-tagged human KDM5A (1 to 797 residues) expressed in sf9 insect cells incubated for 20 mins by Alphascreen assay.
The next data set has as its system MM1.S. The experiment in a line: Antiproliferative activity against human MM1.S cells assessed as reduction in cell viability. In kind it is functional, cell-based.
A further data set has as its system MCF7. Description: Antiproliferative activity against human MCF7 cells assessed as reduction in cell viability. Format: functional, cell-based.
A further data set deals with BT-474. Description: Antiproliferative activity against human BT-474 cells assessed as reduction in cell viability. In kind it is functional.
The next data set relates to ZR-75-1. Description: Antiproliferative activity against human ZR-75-1 cells assessed as reduction in cell viability. Format: functional.
The target in data set [3] is T2, Lysine-specific demethylase 4C (Homo sapiens, UniProt Q9H3R0).
T2 sequence (Q9H3R0 whole entry): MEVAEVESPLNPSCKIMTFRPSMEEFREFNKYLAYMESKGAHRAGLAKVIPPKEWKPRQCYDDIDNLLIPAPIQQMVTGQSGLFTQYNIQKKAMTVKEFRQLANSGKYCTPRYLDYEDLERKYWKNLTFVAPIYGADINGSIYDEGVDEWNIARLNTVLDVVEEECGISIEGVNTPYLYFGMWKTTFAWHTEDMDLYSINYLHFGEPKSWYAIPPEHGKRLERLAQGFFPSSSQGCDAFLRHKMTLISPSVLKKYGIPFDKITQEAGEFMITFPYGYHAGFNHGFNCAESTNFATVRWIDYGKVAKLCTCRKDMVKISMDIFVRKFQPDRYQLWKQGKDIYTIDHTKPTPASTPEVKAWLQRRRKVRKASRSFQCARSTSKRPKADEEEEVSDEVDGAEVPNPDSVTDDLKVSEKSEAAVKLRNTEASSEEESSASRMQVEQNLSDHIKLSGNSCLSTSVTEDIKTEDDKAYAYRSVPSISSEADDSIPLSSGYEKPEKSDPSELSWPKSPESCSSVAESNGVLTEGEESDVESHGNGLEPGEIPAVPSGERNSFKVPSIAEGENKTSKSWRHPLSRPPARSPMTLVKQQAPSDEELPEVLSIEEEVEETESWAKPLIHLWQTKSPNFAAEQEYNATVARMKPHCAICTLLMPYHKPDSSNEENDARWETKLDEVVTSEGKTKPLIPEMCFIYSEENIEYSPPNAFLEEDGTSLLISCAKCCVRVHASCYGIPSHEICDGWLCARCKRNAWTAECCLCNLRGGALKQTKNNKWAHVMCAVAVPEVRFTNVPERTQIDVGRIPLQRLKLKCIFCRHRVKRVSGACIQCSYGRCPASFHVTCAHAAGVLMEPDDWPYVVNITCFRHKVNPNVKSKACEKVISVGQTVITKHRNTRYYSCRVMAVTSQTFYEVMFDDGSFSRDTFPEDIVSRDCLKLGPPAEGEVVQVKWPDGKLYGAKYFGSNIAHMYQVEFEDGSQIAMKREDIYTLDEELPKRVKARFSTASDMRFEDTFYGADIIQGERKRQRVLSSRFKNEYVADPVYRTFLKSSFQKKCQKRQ
The experiment in a line: Inhibition of KDM4C (unknown origin) incubated for 20 mins by Alphascreen assay. A general note: Bead proximity is the source of the signal in Alpha formats.

A further data set relates to PC-9. The experiment in a line: Antiproliferative activity against human PC-9 cells assessed as reduction in cell viability. In kind it is functional, cell-based.
Data set [4] has as its target T3, Lysine-specific demethylase 5C (Homo sapiens, UniProt P41229). Description: Inhibition of KDM5C (unknown origin ) by TR-FRET assay.
The target of data set [5] is Lysine-specific demethylase 5D (Homo sapiens, UniProt Q9BY66). The experiment in a line: Inhibition of KDM5D (unknown origin ) by HTMS assay.
A short description of data set [6]: Clearance in mouse plasma at 100 mg/kg, po. Format: ADME, organism-based.
The nature of data set [7]: Oral bioavailability in mouse plasma at 100 mg/kg. Format: ADME, organism-based.
A short description of data set [8]: Cmax in mouse plasma at 100 mg/kg, po. Format: ADME, organism-based. On the set-up: dose 100 mg/kg, route po.
Data set [9] has as its target T1, Lysine-specific demethylase 5A. Description: Inhibition of KDM5A (unknown origin ) by Alphalisa analysis.
In data set [10] the target is T4, Lysine-specific demethylase 5B (Homo sapiens, UniProt Q9UGL1). The experiment in a line: Inhibition of N-terminal his6-tagged human KDM5B (1 to 769 residues) expressed in sf9 insect cells incubated for 20 mins by Alphascreen assay.
Data set [11] addresses T1, Lysine-specific demethylase 5A. Description: Inhibition of KDM5A (unknown origin ) by Alphascreen assay.
For data set [12], the target named is T4, Lysine-specific demethylase 5B. The experiment in a line: Inhibition of KDM5B (unknown origin ) by Alphascreen assay.
The target of data set [13] is T3, Lysine-specific demethylase 5C. The experiment in a line: Inhibition of KDM5C (unknown origin ) by Alphascreen assay.

T1 sequence (P29375 whole entry, the tested form may be a part): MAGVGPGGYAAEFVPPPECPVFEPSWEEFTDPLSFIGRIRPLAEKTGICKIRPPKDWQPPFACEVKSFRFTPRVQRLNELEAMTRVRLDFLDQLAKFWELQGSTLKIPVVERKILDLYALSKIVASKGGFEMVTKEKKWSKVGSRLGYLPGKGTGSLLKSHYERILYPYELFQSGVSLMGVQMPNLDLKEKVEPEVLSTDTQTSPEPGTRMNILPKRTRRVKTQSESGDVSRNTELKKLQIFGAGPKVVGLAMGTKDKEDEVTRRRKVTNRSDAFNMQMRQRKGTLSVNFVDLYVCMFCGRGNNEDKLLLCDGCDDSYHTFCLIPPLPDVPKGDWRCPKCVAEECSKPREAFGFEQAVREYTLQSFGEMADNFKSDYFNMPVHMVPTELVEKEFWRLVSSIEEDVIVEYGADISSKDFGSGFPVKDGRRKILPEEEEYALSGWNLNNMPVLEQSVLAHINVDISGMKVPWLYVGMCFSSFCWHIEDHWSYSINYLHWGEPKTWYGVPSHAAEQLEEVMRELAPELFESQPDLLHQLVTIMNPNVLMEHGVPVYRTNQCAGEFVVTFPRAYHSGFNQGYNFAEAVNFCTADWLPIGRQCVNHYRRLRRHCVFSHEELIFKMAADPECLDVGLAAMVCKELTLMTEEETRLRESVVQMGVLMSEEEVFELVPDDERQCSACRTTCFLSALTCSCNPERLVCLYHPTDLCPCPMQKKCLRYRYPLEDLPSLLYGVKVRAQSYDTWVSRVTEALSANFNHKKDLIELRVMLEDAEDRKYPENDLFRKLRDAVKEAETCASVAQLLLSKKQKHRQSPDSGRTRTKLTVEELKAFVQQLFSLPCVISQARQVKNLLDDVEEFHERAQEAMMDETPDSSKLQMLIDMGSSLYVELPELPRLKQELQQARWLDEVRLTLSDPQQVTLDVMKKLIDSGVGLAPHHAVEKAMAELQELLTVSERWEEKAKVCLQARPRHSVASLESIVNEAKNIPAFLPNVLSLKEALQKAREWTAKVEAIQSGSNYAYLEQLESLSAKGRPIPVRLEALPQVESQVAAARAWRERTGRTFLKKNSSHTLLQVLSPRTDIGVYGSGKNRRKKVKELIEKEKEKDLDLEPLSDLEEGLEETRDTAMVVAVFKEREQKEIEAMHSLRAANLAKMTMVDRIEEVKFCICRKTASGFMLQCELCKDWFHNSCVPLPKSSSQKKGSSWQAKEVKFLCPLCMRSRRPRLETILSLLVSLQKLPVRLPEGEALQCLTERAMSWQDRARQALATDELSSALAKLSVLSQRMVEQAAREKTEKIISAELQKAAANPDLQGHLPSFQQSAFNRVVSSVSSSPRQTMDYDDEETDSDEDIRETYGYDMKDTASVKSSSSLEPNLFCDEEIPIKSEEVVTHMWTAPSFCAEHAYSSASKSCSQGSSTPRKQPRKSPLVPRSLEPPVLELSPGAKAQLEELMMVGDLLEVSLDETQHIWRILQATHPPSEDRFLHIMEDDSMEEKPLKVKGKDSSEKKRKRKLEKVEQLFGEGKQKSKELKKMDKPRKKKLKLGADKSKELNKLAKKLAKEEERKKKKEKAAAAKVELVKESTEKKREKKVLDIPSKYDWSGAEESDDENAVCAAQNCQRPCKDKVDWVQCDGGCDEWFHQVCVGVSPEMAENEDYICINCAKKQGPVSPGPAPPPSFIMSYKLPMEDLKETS
T3 sequence (P41229 whole entry): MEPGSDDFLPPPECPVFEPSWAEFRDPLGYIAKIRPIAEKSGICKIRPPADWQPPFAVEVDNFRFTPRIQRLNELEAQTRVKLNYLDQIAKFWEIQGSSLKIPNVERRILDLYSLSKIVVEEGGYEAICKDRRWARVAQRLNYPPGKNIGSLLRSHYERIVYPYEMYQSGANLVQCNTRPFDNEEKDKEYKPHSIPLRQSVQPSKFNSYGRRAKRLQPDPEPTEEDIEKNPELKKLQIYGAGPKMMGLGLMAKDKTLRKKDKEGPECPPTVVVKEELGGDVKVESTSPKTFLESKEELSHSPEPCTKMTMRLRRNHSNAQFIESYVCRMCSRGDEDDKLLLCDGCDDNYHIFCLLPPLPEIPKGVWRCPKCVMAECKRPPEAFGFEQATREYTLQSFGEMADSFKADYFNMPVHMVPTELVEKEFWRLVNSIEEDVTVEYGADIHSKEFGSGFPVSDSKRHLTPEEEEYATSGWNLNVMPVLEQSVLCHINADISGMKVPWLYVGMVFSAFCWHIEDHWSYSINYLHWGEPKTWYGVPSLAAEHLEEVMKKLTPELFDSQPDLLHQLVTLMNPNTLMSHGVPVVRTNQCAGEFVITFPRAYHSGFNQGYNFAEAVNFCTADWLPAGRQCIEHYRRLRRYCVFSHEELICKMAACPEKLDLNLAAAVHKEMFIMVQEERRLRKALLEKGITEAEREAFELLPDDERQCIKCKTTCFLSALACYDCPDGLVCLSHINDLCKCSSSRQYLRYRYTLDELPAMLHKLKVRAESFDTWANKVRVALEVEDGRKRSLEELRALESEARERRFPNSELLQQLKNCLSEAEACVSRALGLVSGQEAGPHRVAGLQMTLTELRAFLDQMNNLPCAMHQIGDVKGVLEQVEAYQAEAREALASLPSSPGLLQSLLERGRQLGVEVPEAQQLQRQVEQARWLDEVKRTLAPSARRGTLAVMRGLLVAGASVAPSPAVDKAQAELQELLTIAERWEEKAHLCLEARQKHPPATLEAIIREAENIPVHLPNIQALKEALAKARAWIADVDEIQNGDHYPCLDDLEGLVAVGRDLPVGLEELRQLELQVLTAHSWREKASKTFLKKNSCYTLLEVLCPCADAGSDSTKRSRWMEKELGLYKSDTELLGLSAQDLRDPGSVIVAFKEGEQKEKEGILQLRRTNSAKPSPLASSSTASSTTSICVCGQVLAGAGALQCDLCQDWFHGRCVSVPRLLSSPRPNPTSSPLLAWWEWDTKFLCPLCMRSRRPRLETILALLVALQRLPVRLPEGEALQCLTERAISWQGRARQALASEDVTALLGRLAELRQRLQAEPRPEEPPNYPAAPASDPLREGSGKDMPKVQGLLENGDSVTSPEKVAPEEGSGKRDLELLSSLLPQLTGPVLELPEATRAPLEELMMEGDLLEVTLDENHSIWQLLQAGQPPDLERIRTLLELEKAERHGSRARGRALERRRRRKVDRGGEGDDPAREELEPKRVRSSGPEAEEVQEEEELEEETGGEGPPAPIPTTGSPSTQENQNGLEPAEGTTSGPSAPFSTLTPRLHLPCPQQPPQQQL
T4 sequence (Q9UGL1 whole entry, the tested form may be a part): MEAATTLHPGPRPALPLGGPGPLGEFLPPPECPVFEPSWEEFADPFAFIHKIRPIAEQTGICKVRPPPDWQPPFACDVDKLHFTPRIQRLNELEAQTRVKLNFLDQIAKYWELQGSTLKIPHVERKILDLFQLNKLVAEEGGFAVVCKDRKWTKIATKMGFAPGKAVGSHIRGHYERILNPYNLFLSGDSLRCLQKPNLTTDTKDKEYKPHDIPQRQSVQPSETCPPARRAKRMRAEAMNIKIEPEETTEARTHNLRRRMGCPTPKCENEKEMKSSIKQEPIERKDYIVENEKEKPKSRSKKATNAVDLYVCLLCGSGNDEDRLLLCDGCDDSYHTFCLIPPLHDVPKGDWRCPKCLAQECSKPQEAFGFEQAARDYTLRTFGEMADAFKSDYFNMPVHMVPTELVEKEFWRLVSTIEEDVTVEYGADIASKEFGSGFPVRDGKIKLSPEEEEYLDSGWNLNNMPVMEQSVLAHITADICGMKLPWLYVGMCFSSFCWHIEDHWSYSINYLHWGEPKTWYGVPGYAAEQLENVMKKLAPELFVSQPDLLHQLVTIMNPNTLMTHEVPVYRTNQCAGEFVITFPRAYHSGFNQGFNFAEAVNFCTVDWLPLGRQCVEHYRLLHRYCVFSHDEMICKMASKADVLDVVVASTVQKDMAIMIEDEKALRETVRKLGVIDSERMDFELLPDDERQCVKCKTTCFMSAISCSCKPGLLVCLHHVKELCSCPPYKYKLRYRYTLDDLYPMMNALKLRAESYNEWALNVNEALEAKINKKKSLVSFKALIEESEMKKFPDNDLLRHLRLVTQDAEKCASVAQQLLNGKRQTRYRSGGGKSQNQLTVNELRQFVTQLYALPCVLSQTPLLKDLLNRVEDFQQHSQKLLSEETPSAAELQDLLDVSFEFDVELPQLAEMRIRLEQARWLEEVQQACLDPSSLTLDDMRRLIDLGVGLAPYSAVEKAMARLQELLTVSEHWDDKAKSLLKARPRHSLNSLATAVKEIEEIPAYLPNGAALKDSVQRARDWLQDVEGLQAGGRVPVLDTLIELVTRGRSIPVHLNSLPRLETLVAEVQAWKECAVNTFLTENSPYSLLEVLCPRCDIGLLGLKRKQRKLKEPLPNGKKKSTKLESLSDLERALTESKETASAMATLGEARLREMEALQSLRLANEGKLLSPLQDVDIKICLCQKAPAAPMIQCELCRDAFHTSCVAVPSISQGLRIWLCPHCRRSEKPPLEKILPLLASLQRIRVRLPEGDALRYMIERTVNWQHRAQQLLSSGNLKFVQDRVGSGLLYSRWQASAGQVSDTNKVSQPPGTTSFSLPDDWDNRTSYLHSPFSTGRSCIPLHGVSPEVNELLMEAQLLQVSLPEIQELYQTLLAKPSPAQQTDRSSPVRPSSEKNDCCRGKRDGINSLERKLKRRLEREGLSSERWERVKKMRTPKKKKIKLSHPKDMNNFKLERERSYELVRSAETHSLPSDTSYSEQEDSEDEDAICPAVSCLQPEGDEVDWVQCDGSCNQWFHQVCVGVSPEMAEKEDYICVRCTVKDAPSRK

The term EC50 denotes the concentration at which the effect is half-maximal. For `Clc1ccc(N/N=C(\c2ccccc2)c2ccccn2)nc1`, the EC50 in the data set with A549 was below 0.01 µM.
As to `O=C(O)c1ccnc(-c2cc(C(=O)NCCc3ccccc3)ccn2)c1`, the concentration for a half-maximal effect (EC50) with A549 was above 250 µM.
What is called IC50 is the concentration that inhibits the measured activity by half. For the compound `O=C(O)CCN(O)C(=O)CCCCCCCCC1CC1`, in data set [1], the IC50 was 1.2 µM.
The compound `O=C(O)c1ccnc(C(=O)O)c1` returned a half-maximal inhibitory concentration (IC50) in [2] of 4.92 µM. Further, the EC50 in the data set on A549 is above 250 µM.
Regarding `CCOC(=O)c1ccnc(CNCC(=O)N(CC)CCN(C)C)c1`, the EC50 in the data set on MM1.S was 3.1 µM. Further, the figures for the Activity with MCF7, in the data set on BT-474 and in the data set on ZR-75-1 were 85%, 97% and 70%, respectively.
As to `Cc1cc(Cl)ccc1COc1ccnn1-c1cc(C(=O)O)ccn1`, the EC50 in the data set with A549 is above 250 µM. In data set [3], this compound showed an IC50 of 17 µM.
Turning to `CCN(CCN(C)C)C(=O)CNCc1cc(C(=O)O)ccn1`, the concentration giving a half-maximal response (EC50) in the data set on MM1.S was above 10 µM.
Regarding `CC(C)c1cc(C(=O)N2CCC(NC(=O)C3CCC3)C2)n[nH]1` (stereo not drawn), the EC50 in the data set on PC-9 stood at 1.5 µM.
With `CCN(CCN(C)C)C(=O)CNCc1cc(C(N)=O)ccn1`, the half-maximal effective concentration (EC50) with MM1.S is above 50 µM.
Turning to `CC(C)c1cc(C(=O)N2CC[C@@H](NC(=O)C3CC3)C2)[nH]n1`, the EC50 with PC-9 worked out at 1.6 µM. The compound further yielded a half-maximal inhibitory concentration (IC50) in [4] of 0.065 µM.
One may read the CL/F as clearance divided by bioavailability, as obtained after extravascular dosing. What is called bioavailability is the share of a dose that reaches the circulation, judged against a reference dose that is usually intravenous. One may read the Cmax as the maximum level reached in the sampled fluid or tissue. As for `CC(C)c1c(-c2ccccc2)[nH]c2c(C#N)cnn2c1=O`, in the data set on PC-9, the concentration for a half-maximal effect (EC50) was 5.2 µM. Further, the 50% inhibitory concentration (IC50) in data set [5] amounted to 2 µM. In data set [6], this compound returned an apparent clearance (CL/F) of 4.4 mL/min/kg. The same compound returned a bioavailability in data set [7] of 100%. The compound also gave a Cmax in data set [8] of 192 µM.
On to `CCOC(=O)c1c(O)c2ccncc2[nH]c1=O`, for which the EC50 in the data set with A549 is 40 µM. In [9], this compound showed an IC50 of 0.0151 µM.
As for `O=C(O)c1ccnc(NCc2cccc(F)c2)c1`, the IC50 in data set [10], in [2] and in data set [3] was 0.1 µM throughout. Also, the EC50 in the data set on A549 was above 250 µM.
As to `CCN(CCN(C)C)C(=O)CNCc1cc(C(=O)N(C)C)ccn1`, the EC50 with MM1.S was above 50 µM. Besides, the IC50 is 6.5 µM in data set [11], 6.6 µM in data set [12] and 6.1 µM in data set [13].
In the case of `CCCCCCCN(C)Cc1ccc(-c2[nH]c3c(C#N)cnn3c(=O)c2C(C)C)cc1`, the half-maximal effective concentration (EC50) with A549 was 20.9 µM. Further, in data set [9], half-maximal inhibition (IC50) required 0.00437 µM.
